Each molecule was assayed against ROCK2 (Homo sapiens (Human), UniProt O75116) (assay: ROCK2 assay (peptide phosphorylation, LABCHIP 3000 Reader)). Conditions: 5 μM ATP, 1.5 μM peptide substrate, dose-response.
Chain of ROCK2 (O75116 whole entry, species assumed): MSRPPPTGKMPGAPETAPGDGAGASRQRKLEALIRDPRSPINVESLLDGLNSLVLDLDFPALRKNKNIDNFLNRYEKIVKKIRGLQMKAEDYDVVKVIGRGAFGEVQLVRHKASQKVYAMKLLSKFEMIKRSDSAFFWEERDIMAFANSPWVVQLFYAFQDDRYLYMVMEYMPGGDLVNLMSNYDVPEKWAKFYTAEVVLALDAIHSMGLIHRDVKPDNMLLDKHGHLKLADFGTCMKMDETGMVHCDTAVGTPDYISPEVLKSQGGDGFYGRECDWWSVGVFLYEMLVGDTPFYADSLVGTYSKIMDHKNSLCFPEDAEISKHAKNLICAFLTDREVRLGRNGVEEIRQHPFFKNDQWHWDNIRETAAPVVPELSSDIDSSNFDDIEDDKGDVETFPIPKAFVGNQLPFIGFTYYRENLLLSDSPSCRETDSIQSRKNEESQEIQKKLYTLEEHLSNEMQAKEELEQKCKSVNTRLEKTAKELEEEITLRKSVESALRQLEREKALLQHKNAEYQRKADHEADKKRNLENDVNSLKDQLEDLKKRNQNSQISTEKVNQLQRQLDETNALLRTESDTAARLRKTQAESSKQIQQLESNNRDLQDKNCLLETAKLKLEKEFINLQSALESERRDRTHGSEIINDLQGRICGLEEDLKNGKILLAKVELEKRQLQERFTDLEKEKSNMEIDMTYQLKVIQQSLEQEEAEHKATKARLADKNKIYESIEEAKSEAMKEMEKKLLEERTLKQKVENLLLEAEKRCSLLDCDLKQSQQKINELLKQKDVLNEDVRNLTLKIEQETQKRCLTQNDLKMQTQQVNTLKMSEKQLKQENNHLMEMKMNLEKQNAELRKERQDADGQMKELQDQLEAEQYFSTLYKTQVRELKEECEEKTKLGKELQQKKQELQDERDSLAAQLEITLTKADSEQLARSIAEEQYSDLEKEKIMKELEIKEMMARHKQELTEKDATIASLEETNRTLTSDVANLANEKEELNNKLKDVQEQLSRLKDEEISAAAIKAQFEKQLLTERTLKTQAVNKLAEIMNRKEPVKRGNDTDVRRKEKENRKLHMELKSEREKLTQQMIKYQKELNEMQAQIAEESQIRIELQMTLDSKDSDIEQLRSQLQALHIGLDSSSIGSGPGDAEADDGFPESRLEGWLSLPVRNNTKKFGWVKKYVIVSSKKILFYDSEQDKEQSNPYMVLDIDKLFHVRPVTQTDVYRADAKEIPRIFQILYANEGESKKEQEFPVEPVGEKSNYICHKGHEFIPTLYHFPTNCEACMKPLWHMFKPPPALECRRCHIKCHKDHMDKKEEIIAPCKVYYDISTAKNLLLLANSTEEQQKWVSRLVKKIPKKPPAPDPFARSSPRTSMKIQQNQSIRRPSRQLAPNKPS
Format: biochemical
Protocol: After incubation, the reaction was terminated by the addition of EDTA and the phosphorylated and non-phosphorylated peptides separated using a LABCHIP®3000 Reader (Caliper Life Sciences). […] Compounds were tested in dose-response format, and the inhibition of kinase activity was calculated at each concentration of compound. […] Representative Examples were tested in the ROCK2 assay described above and found having ROCK2 inhibitory activity.
N#Cc1cccc(C(=O)N[C@H]2C[C@]3(C2)C[C@H](Oc2nc4c(cc2C(N)=O)COCC4)C3)c1 (stereo partly drawn) [Example 85, 2-{[(aR)-6-(3-cyanobenzamido)spiro[3.3]heptan-2-yl]oxy}-5H,7H,8H-pyrano[4,3-b]pyridine-3-carboxamide] gave an IC50 of 0.144 µM.
NC(=O)c1cc2sccc2nc1O[C@H]1C[C@]2(C1)C[C@H](N1C(=O)CN(Cc3ccccc3)CC1=O)C2 (stereo partly drawn) [Example 86, 5-{[(aR)-6-(4-benzyl-2,6-dioxopiperazin-1-yl)spiro[3.3]heptan-2-yl]oxy}thieno[3,2-b]pyridine-6-carboxamide] was tested, and the IC50 was 0.0859 µM.
For N#Cc1cc(C(=O)N[C@H]2C[C@]3(C2)C[C@H](Oc2nc4c(cc2C(N)=O)COCC4)C3)ccc1F (stereo partly drawn) [Example 87, 2-{[(aR)-6-(3-cyano-4-fluorobenzamido)spiro[3.3]heptan-2-yl]oxy}-5H,7H,8H-pyrano[4,3-b]pyridine-3-carboxamide], the IC50 was 0.156 µM.
With N#CCc1cccc(C(=O)N[C@H]2C[C@]3(C2)C[C@H](Oc2nc4c(cc2C(N)=O)COCC4)C3)c1 (stereo partly drawn) [Example 88, 2-{[(aR)-6-[3-(cyanomethyl)benzamido]spiro[3.3]heptan-2-yl]oxy}-5H,7H,8H-pyrano[4,3-b]pyridine-3-carboxamide] the IC50 was 0.035 µM.
In the case of N#Cc1ccc(F)c(C(=O)N[C@H]2C[C@]3(C2)C[C@H](Oc2nc4c(cc2C(N)=O)COCC4)C3)c1 (stereo partly drawn) [Example 89, 2-{[(aR)-6-(5-cyano-2-fluorobenzamido)spiro[3.3]heptan-2-yl]oxy}-5H,7H,8H-pyrano[4,3-b]pyridine-3-carboxamide], the IC50 is reported as 0.716 µM.
Work on COc1ccc(C(=O)N[C@H]2C[C@]3(C2)C[C@H](Oc2nc4c(cc2C(N)=O)COCC4)C3)cc1C#N (stereo partly drawn) [Example 90, 2-{[(aR)-6-(3-cyano-4-methoxybenzamido)spiro[3.3]heptan-2-yl]oxy}-5H,7H,8H-pyrano[4,3-b]pyridine-3-carboxamide] yielded an IC50 of 0.114 µM.
With NC(=O)c1cc2c(nc1O[C@H]1C[C@@]3(C[C@H](NC(=O)c4ccc5[nH]ncc5c4)C3)C1)CCOC2 (stereo partly drawn) [Example 91, N-[(aR)-6-({3-carbamoyl-5H,7H,8H-pyrano[4,3-b]pyridin-2-yl}oxy)spiro[3.3]heptan-2-yl]-1H-indazole-5-carboxamide] the IC50 was 0.33 µM.
For N#Cc1cc(C(=O)N[C@H]2C[C@]3(C2)C[C@H](Oc2nc4c(cc2C(N)=O)COCC4)C3)ccc1Br (stereo partly drawn) [Example 92, 2-{[(aR)-6-(4-bromo-3-cyanobenzamido)spiro[3.3]heptan-2-yl]oxy}-5H,7H,8H-pyrano[4,3-b]pyridine-3-carboxamide], the IC50 was 0.191 µM.
Molecule N#Cc1ccc(C(=O)N[C@H]2C[C@]3(C2)C[C@H](Oc2nc4c(cc2C(N)=O)COCC4)C3)cc1F (stereo partly drawn) [Example 93, 2-{[(aR)-6-(4-cyano-3-fluorobenzamido)spiro[3.3]heptan-2-yl]oxy}-5H,7H,8H-pyrano[4,3-b]pyridine-3-carboxamide] has an IC50 of 1.46 µM.
Cc1sc2cc(C(N)=O)c(O[C@H]3C[C@@]4(C[C@H](NC(=O)c5cnn6cc(OCC(C)(C)O)ccc56)C4)C3)nc2c1C (stereo partly drawn) [Example 94, 2,3-dimethyl-5-{[(aR)-6-[6-(2-hydroxy-2-methylpropoxy)pyrazolo[1,5-a]pyridine-3-amido]spiro[3.3]heptan-2-yl]oxy}thieno[3,2-b]pyridine-6-carboxamide] was tested, and the IC50 was 0.039 µM.
With Cc1sc2cc(C(N)=O)c(O[C@H]3C[C@@]4(C[C@H](NC(=O)c5cccc(C#N)c5)C4)C3)nc2c1C (stereo partly drawn) [Example 95, 2,3-dimethyl-5-{[(aR)-6-(3-cyanobenzamido)spiro[3.3]heptan-2-yl]oxy}thieno[3,2-b]pyridine-6-carboxamide] the IC50 was 0.079 µM.
Cc1sc2cc(C(N)=O)c(O[C@H]3C[C@@]4(C[C@H](NC(=O)c5cnc6ccc(F)cc6c5)C4)C3)nc2c1C (stereo partly drawn) [Example 96, 6-fluoro-N-[(aR)-6-({6-carbamoyl-2,3-dimethylthieno[3,2-b]pyridin-5-yl}oxy)spiro[3.3]heptan-2-yl]quinoline-3-carboxamide] gave an IC50 of 0.126 µM.
With Cc1csc2cc(C(N)=O)c(O[C@H]3C[C@@]4(C[C@H](NC(=O)c5cnn6cc(OCC(C)(C)O)ccc56)C4)C3)nc12 (stereo partly drawn) [Example 97, 3-methyl-5-{[(aR)-6-[6-(2-hydroxy-2-methylpropoxy)pyrazolo[1,5-a]pyridine-3-amido]spiro[3.3]heptan-2-yl]oxy}thieno[3,2-b]pyridine-6-carboxamide] the IC50 was 0.012 µM.
Molecule Cc1csc2cc(C(N)=O)c(O[C@H]3C[C@@]4(C[C@H](NC(=O)c5cccc(C#N)c5)C4)C3)nc12 (stereo partly drawn) [Example 98, 3-methyl-5-{[(aR)-6-(3-cyanobenzamido)spiro[3.3]heptan-2-yl]oxy}thieno[3,2-b]pyridine-6-carboxamide] has an IC50 of 0.0257 µM.
Molecule Cc1csc2cc(C(N)=O)c(O[C@H]3C[C@@]4(C[C@H](NC(=O)c5cnc6ccc(F)cc6c5)C4)C3)nc12 (stereo partly drawn) [Example 99, 6-fluoro-N-[(aR)-6-({6-carbamoyl-3-methylthieno[3,2-b]pyridin-5-yl}oxy)spiro[3.3]heptan-2-yl]quinoline-3-carboxamide] has an IC50 of 0.0671 µM.
NC(=O)c1cc2c(nc1O[C@H]1C[C@@]3(C[C@H](NC(=O)c4cnc5ccc(F)cc5c4)C3)C1)CCOC2 (stereo partly drawn) [Example 100, 6-fluoro-N-[(aR)-6-({3-carbamoyl-5H,7H,8H-pyrano[4,3-b]pyridin-2-yl}oxy)spiro[3.3]heptan-2-yl]quinoline-3-carboxamide] was tested, and the IC50 was 0.0366 µM.
For Cn1ncc2cc(C(N)=O)c(O[C@H]3C[C@@]4(C[C@H](NC(=O)c5cnn6cc(OCC(C)(C)O)ccc56)C4)C3)nc21 (stereo partly drawn) [Example 101, 1-methyl-6-{[(aR)-6-[6-(2-hydroxy-2-methylpropoxy)pyrazolo [1,5-a]pyridine-3-amido]spiro[3.3]heptan-2-yl]oxy}-1H-pyrazolo[3,4-b]pyridine-5-carboxamide], the IC50 was 0.006 µM.
Molecule Cn1ncc2cc(C(N)=O)c(O[C@H]3C[C@@]4(C[C@H](NC(=O)c5cccc(C#N)c5)C4)C3)nc21 (stereo partly drawn) [Example 102, 1-methyl-6-{[(aR)-6-(3-cyanobenzamido)spiro[3.3]heptan-2-yl]oxy}-1H-pyrazolo[3,4-b]pyridine-5-carboxamide] has an IC50 of 0.008 µM.
Molecule Cn1ncc2cc(C(N)=O)c(O[C@H]3C[C@@]4(C[C@H](NC(=O)c5cnc6ccc(F)cc6c5)C4)C3)nc21 (stereo partly drawn) [Example 103, 6-fluoro-N-[(aR)-6-({5-carbamoyl-1-methyl-1H-pyrazolo[3,4-b]pyridin-6-yl}oxy)spiro[3.3]heptan-2-yl]quinoline-3-carboxamide] has an IC50 of 0.005 µM.
NC(=O)c1cn(C2CC2)nc1O[C@H]1C[C@]2(C1)C[C@H](N1C(=O)NC(Cc3ccccc3)C1=O)C2 (stereo partly drawn) [Example 104, 1-cyclopropyl-3-{[(aR)-6-(4-benzyl-2,5-dioxoimidazolidin-1-yl)spiro[3.3]heptan-2-yl]oxy}-1H-pyrazole-4-carboxamide] showed an IC50 of 2.04 µM.
In the case of CC(C)CC1NC(=O)N([C@H]2C[C@@]3(C[C@H](Oc4nn(C5CC5)cc4C(N)=O)C3)C2)C1=O (stereo partly drawn) [Example 105, 1-cyclopropyl-3-{[(aR)-6-[4-(2-methylpropyl)-2,5-dioxoimidazolidin-1-yl]spiro[3.3]heptan-2-yl]oxy}-1H-pyrazole-4-carboxamide], the IC50 is reported as 0.133 µM.
Work on CC(C)C1NC(=O)N([C@H]2C[C@@]3(C[C@H](Oc4nc(C5CC5)sc4C(N)=O)C3)C2)C1=O (stereo partly drawn) [Example 106, 2-cyclopropyl-4-{[(aR)-6-[2,5-dioxo-4-(propan-2-yl)imidazolidin-1-yl]spiro[3.3]heptan-2-yl]oxy}-1,3-thiazole-5-carboxamide] yielded an IC50 of 0.587 µM.
